The source of these data is publication PMC10269775, “Penicillin-Binding Protein Occupancy Dataset for 18 β-Lactams and 4 β-Lactamase Inhibitors in Neisseria gonorrhoeae” (Microbiology Spectrum, 2023).

The subject of assay [1] is N. gonorrhoeae ATCC 19424. Nature of the assay: MIC, CLSI broth microdilution. Type of assay: cell-based. The settings on record: Neisseria gonorrhoeae, ATCC19424, strain ATCC 19424. (In general: Broth dilution looks for growth in wells or tubes with falling amounts of substance.)
For assay [2], the target named is T1, PBP2 (Neisseria gonorrhoeae, UniProt P08149, H541N).
T1 construct: endogenous in cells; host or cells: N. gonorrhoeae ATCC 19424, isolated membrane preparation
Description: PBP-binding assay (Bocillin FL) in isolated membrane preparations. Also noted: species or system Neisseria gonorrhoeae ATCC 19424.

In assay [3] the target is T2, PBP2 (Neisseria gonorrhoeae, UniProt P08149, A510V/A516G/A574V/F504L/H541N/I556V/I566V/K555Q/P552V).
T2 construct: endogenous in cells; host or cells: N. gonorrhoeae ATCC 49226, isolated membrane preparation
Nature of the assay: biochemical. The settings on record: IC50 PBP2, strain ATCC 49226; membrane preparation, 30 min drug then Bocillin FL. Type of assay: binding, Neisseria gonorrhoeae ATCC 49226.

The test system of assay [4] is N. gonorrhoeae ATCC 49226. Nature of the assay: MIC, CLSI broth microdilution. It counts as cell-based, Neisseria gonorrhoeae. The conditions noted are these: for MIC: strain ATCC 49226.
Assay [5] addresses T3, PBP1 (Neisseria gonorrhoeae, UniProt O05131).
T3 construct: endogenous in cells; host or cells: N. gonorrhoeae ATCC 19424, isolated membrane preparation
Description: PBP-binding assay (Bocillin FL) in isolated membrane preparations. The conditions noted are these: strain ATCC 19424. The source says: (§1) Bacterial membranes were collected by ultracentrifugation.

Assay [6] relates to N. gonorrhoeae ATCC 19424 and ATCC 49226. Nature of the assay: MIC, summary over both strains. It counts as cell-based, Neisseria gonorrhoeae.
In assay [7] the target is T4, PBP1 (Neisseria gonorrhoeae, UniProt O05131, A375T/F666S).
T4 construct: endogenous in cells; host or cells: N. gonorrhoeae ATCC 49226, isolated membrane preparation
Description: PBP-binding assay (Bocillin FL) in isolated membrane preparations. More on the design: species or system Neisseria gonorrhoeae ATCC 49226.
Text: as §1

Assay [8] addresses PBP1, PBP2 and PBP3 (Neisseria gonorrhoeae, UniProt P08149, H541N). Type of assay: binding, Neisseria gonorrhoeae ATCC 19424. The settings on record: read-out: min. IC50 (minimum observed IC50 value); strain ATCC 19424.
Assay [9] deals with PBP1, PBP2 and PBP3 (Neisseria gonorrhoeae, UniProt P08149, A510V/A516G/A574V/F504L/H541N/I556V/I566V/K555Q/P552V). It counts as binding, Neisseria gonorrhoeae ATCC 49226. The conditions noted are these: read-out: min. IC50 (minimum observed IC50 value); strain ATCC 49226.
Assay [10] concerns the target T5, PBP3 (Neisseria gonorrhoeae, UniProt Q5FAB9).
T5 sequence (Q5FAB9 22-469): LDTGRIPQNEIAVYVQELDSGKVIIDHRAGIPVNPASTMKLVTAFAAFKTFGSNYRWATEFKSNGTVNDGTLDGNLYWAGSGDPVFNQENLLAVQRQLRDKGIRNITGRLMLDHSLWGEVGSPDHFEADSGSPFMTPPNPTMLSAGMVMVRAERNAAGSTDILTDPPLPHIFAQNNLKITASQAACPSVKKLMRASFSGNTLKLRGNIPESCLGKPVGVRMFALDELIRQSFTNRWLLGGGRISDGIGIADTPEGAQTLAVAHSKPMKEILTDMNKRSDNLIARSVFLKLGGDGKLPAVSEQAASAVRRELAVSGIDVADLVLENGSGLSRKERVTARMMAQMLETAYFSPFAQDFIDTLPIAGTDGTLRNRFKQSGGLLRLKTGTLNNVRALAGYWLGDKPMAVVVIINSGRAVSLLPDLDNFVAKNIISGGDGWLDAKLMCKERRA
The settings on record: read-out: IC50 PBP3; strain ATCC 19424; membrane preparation, 30 min drug then Bocillin FL.

The target of assay [11] is T5, PBP3. The conditions noted are these: read-out: IC50 PBP3; strain ATCC 49226; membrane preparation, 30 min drug then Bocillin FL.
Assay [12] concerns the target T6, PBP1, PBP2 and PBP3 (Neisseria gonorrhoeae, UniProt Q5FAB9).
T6 sequence (Q5FAB9 22-469): T5 sequence (Q5FAB9 22-469)
It counts as binding, Neisseria gonorrhoeae ATCC 49226. The conditions noted are these: read-out: min. IC50 (minimum observed IC50 value); strain ATCC 49226.

Where [13] appears, read: IC50 PBP2, strain ATCC 19424, membrane preparation, 30 min drug then Bocillin FL.
[14] abbreviates: Neisseria gonorrhoeae, ATCC49226, read-out: MIC.
The mark [15] stands for this setting: Neisseria gonorrhoeae, ATCC49226, read-out: MIC (Table S1).
[16] abbreviates: membrane preparation, 30 min drug then Bocillin FL, read-out: IC50 PBP1 (converted).
[17] abbreviates: IC50 PBP1, strain ATCC 49226, membrane preparation, 30 min drug then Bocillin FL.
The mark [18] stands for this setting: read-out: IC50 PBP1 (Table S1) (converted).
Where [19] appears, read: strain ATCC 19424, membrane preparation, 30 min drug then Bocillin FL, read-out: IC50 PBP2 (converted).

≈ marks a conversion by molar mass, not a printed value. Read-outs that look alike come from different tables or passages of the source. Some results are limits rather than exact numbers.

As a reminder, the MIC is the lowest concentration found to suppress growth. One may read the IC50 as the concentration that gives 50% inhibition. Regarding `C[C@@H](O)[C@H]1C(=O)N2C(C(=O)O)=C(SCCN=CN)C[C@H]12` [IPM, imipenem], the MIC is 0.032 µg/mL (≈ 0.107 µM) in assay [1] (read-out: MIC); 0.032 µg/mL (≈ 0.107 µM) in assay [1] (read-out: MIC (Table S1)); 0.064 µg/mL (≈ 0.214 µM) in assay [4] (setting [14]); 0.064 µg/mL (≈ 0.214 µM) in assay [4] (setting [15]); 0.032 to 0.064 µg/mL (≈ 0.107 to 0.214 µM) in assay [6] (Neisseria gonorrhoeae, across the two ATCC strains). For the same compound, the IC50 was 0.234 µM on PBP2 [2] (setting [13]), 0.568 µM at PBP2 [3], 1.34 µM at PBP1 [5] (setting [16]) and 2.67 µM at PBP1 [7] (setting [17]).

Regarding `CC1(C)S[C@@H]2[C@H](/N=C/N3CCCCCC3)C(=O)N2[C@H]1C(=O)O` [MEC, amdinocillin], the minimum inhibitory concentration (MIC) turned out to be 1 µg/mL (≈ 3.07 µM) in assay [1] (read-out: MIC), 1 µg/mL (≈ 3.07 µM) in assay [1] (read-out: MIC (Table S1)), 8 µg/mL (≈ 24.6 µM) in [4] (setting [14]) and 8 µg/mL (≈ 24.6 µM) in [4] (setting [15]). Besides, the IC50 was 4.09 µM on PBP1, PBP2 and PBP3 [8]; 4.09 µM at PBP2 [2] (setting [13]); 313 µM at PBP1 [5] (setting [16]); 314 µM at PBP1 [5] (setting [18]).

Take `C[C@@H](O)[C@H]1C(=O)N2C(C(=O)O)=C(S[C@@H]3CN[C@H](C(=O)N(C)C)C3)[C@H](C)[C@H]12` [MEM, meropenem]: the MIC in assay [1] (read-out: MIC) was 0.008 µg/mL (≈ 0.0209 µM); in assay [1] (read-out: MIC (Table S1)) it was 0.008 µg/mL (≈ 0.0209 µM); in assay [4] (setting [14]), 0.016 µg/mL (≈ 0.0417 µM); in assay [4] (setting [15]), 0.016 µg/mL (≈ 0.0417 µM). The IC50 is 0.104 µM on PBP2 [2] (IC50 PBP2 (Table S1), strain ATCC 19424); 0.626 µM on PBP1 [5] (setting [16]); 1.17 µM at PBP1 [7] (setting [17]). In assay [6] (compared with imipenem), this compound registered a times more active of 8 times.

Consider `CCN1CCN(C(=O)N[C@@H](C(=O)N[C@@H]2C(=O)N3[C@@H]2SC(C)(C)[C@@H]3C(=O)O)c2ccccc2)C(=O)C1=O` [PIP, piperacillin], for which the minimal inhibitory concentration (MIC) in assay [1] (read-out: MIC) stood at 0.001 µg/mL (≈ 0.00193 µM); in assay [1] (read-out: MIC (Table S1)), 0.001 µg/mL (≈ 0.00193 µM); in [4] (setting [15]), 0.125 µg/mL (≈ 0.242 µM). In addition, the half-inhibitory concentration (IC50) on PBP1, PBP2 and PBP3 [8] is 0.0386 µM; at PBP2 [2] (setting [19]), 0.0386 µM; against PBP2 [3], 0.0193 µM; on PBP1 [5] (setting [16]), over 3.86 µM; at PBP1 [7] (setting [17]), over 3.86 µM; on PBP1, PBP2 and PBP3 [9] it was 0.0193 µM. In assay [4] (ATCC 49226 versus ATCC 19424), the “MIC increase for strain ATCC 49226” value worked out at 125 fold.

On to `CC1(C)S[C@@H]2[C@H](NC(=O)[C@H](C(=O)O)c3ccsc3)C(=O)N2[C@H]1C(=O)O` [TIC, ticarcillin], for which the MIC worked out at 0.016 µg/mL (≈ 0.0416 µM) in assay [1] (read-out: MIC), 0.016 µg/mL (≈ 0.0416 µM) in assay [1] (read-out: MIC (Table S1)), 0.5 µg/mL (≈ 1.3 µM) in assay [4] (setting [14]) and 0.5 µg/mL (≈ 1.3 µM) in assay [4] (setting [15]). The concentration for half-maximal inhibition (IC50) at PBP1, PBP2 and PBP3 [8] was 0.494 µM; on PBP2 [2] (setting [19]), 0.494 µM; against PBP2 [3], over 5.2 µM; at PBP1 [5] (setting [16]), over 5.2 µM; on PBP3 [10], 2.73 µM; on PBP1 [7] (setting [17]) it was over 5.2 µM. Moreover, the half-inhibitory concentration (IC50) at PBP3 [11] is 1.64 µM; at PBP1, PBP2 and PBP3 [12] it was 1.64 µM.

Turning to `Cn1c(N)c(NC(=O)NCCN)c[n+]1CC1=C(C(=O)O)N2C(=O)[C@@H](NC(=O)/C(=N\OC(C)(C)C(=O)[O-])c3nsc(N)n3)[C@H]2SC1` [TOL, ceftolozane], the minimal inhibitory concentration (MIC) turned out to be 0.032 µg/mL (≈ 0.048 µM) in assay [1] (read-out: MIC); 0.032 µg/mL (≈ 0.048 µM) in assay [1] (read-out: MIC (Table S1)); 0.25 µg/mL (≈ 0.375 µM) in assay [4] (setting [14]); 0.25 µg/mL (≈ 0.375 µM) in assay [4] (setting [15]); 0.250 µg/mL (≈ 0.375 µM) in [4]. Further, the IC50 on PBP1, PBP2 and PBP3 [8] was 0.06 µM; at PBP2 [2] (setting [13]), 0.06 µM; on PBP2 [3], 0.405 µM; at PBP1 [5] (setting [16]) it was over 3 µM; at PBP3 [10] it was over 3 µM; on PBP1 [7] (setting [17]), over 3 µM. The IC50 on PBP3 [11] is over 3 µM; at PBP1, PBP2 and PBP3 [9] it was 0.405 µM.

As to `C[C@]1(Cn2ccnn2)[C@H](C(=O)O)N2C(=O)C[C@H]2S1(=O)=O` [TZ, tazobactam], the MIC in [1] (read-out: MIC) turned out to be 0.125 µg/mL (≈ 0.416 µM); in assay [1] (read-out: MIC (Table S1)), 0.125 µg/mL (≈ 0.416 µM); in assay [4] (setting [14]), 1 µg/mL (≈ 3.33 µM); in [4] (setting [15]), 1 µg/mL (≈ 3.33 µM). Further, the half-inhibitory concentration (IC50) at PBP1, PBP2 and PBP3 [8] is 3.56 µM; at PBP2 [2] (setting [13]), 3.56 µM; at PBP2 [3] it was 4.8 µM; on PBP1 [5] (setting [16]) it was 63.3 µM; on PBP1 [5] (setting [18]), 64 µM; at PBP3 [10] it was 15.7 µM. The IC50 at PBP1 [7] (IC50 PBP1 (Table S1), strain ATCC 49226) was 83.6 µM; at PBP1 [7] (setting [17]), 83.3 µM; on PBP3 [11] it was 18.9 µM; at PBP1, PBP2 and PBP3 [9], 4.8 µM.
